Patent publication US20040110844A1, “Anti-tumor pharmaceutical composition comprising N-vanillyl fatty acid amide” (KUREHA CHEMICAL INDUSTRY COMPANY, Limited, priority 2002, published 2004)

Legend:
B16F10 melanoma cell [1] = assay: Growth of B16F10 melanoma cells, number of cells counted with trypan blue and hemocytometer; assay type: cell-based, mouse; details: for cells in culture relative to the control culture: 50 μM; for cells in culture relative to the control culture / cells in culture relative to the control culture (survival ratio): cultured for 48 hours, B16F10; for cells in culture relative to the control culture (survival ratio): 100 μM; for action on the growth of melanoma cells (in words): 10-300 μM capsaicin, 10-100 μM Dohevanil, 48 hours, versus control
Procedure: B16F10 melanoma cell used for the comparison was a malignant melanoma cell derived from a mouse. The melanoma cells were cultured under 5% CO2 condition at 37 degrees Celsius in DMEM culture medium (pH7.2) including 10% of bovine fetus serum and penicillin/streptomycin solution. After the cells reached from 70% to 80% confluent, the cells were treated with trypsin-EDTA to release from the wall of culture device and were subjected to passage culture.
The number of cells were measured by the process comprising suspending the cells collected, sufficiently mixing the suspension with a trypan blue stain solution in the same volume of the suspension, watching the suspension using a phase contrast microscope and measuring the number of cells with a hemocytometer (Burker-Turk hemocytometer, Nippon Rinsho Kikai Kogyo Ltd.)
In order to examine the action of capsaicin to the growth of melanoma cells, the number of the cells were measured after 10 μM, 30 μM, 50 μM, 100 μM, or 300 μM of capsaicin was added to the MDEM media in which the melanoma cells exist and then the cells were cultured for 48 hours. […] In order to examine the action of Dohevanil to the growth of melanoma cells, the number of the cells were measured in the same manner as conducted for capsaicin except that capsaicin was replaced with Dohevanil. The melanoma cells were cultured in 10 μM, 30 μM, 50 μM, or 100 μM of Dohevanil.

B16F10 melanoma cell [2] = assay: Hoechst 33342 fluorescence microscopy for apoptosis in melanoma cells; assay type: cell-based, mouse; details: Hoechst33342, each concentration, versus control
Procedure: The observation using the fluorescence microscope was carried out by the process comprising washing with PBS (−) a suspension of B16F10 cells treated with an agent for a given time (1×10^6 cells/ml), fixing the cells with 4% paraformaldehyde overnight, washing the cell fixed solution with PBS(−), suspending the cells in 20 μl of PBS (−), mixing 2 μl of fluorescence indicator (Hoechst 33342 (1 mM)) with each 5 μl of the cell suspension, placing a cover glass on the mixture, watching it using the fluorescence microscope (U region) and photographing.
The shape of the cells was observed using Hoechst33342 (dye) which specifically combined with the chromosome by fluorescence microscope to find out whether or not the cell death by capsaicin or Dohevanil was due to the apoptosis. As a result, the aggregation of chromatins and the disorder of nuclear shape, which are characteristics of the cell death by apoptosis, were observed by comparison with the control in each concentration of capsaicin or Dohevanil.

HeLa cells = assay: HeLa cell growth by WST-1 method and LDH active release; assay type: cell-based, human; details: for survival ratio of the cells: 100 μM, HeLa cells; for action on the growth of HeLa cells (in words): 10, 30, 50, 100 μM
Procedure: (§1) In order to make a comparison between the anti-tumor effects of capsaicin and Dohevanil, the following experimentation was carried out using HeLa cells derived from human uterocervical cancer as a tomor cell and NIH/3T3 cells as a normal cell. These cells used in the experimentation were cultured in RPMI-1640 medium (pH7.2) with 5% bovine fetal serum under the culture conditions being maintained in 5% CO2 and at 37 degrees Celsius. capsaicin or Dohevanil was added to each of the cell suspensions in the concentration of 10 μM, 30 μM, 50 μM, or 100 μM and then the cells were cultured. In this comparative example, the capability of cell growth was measured by WST-1 method and LDH active release into the supernatant as an indicator.
(§2) In this connection, the term “WST-1 method” used in the example means a method comprising reducing a formazan by using a reductase activity of mitochondria and determining an absorption of the coloring. The absorption may be used as an indicator of the cell growth because the reductase activity of mitochondria is lost if the cells die. The term “LDH active release” as used herein means that LDH (lactate dehydrogenase) is released due to a destruction of cell membrane accompanied with a cell death, and the measured value of the active release can be used as an indicator of the cell death.

NIH/3T3 cells = assay: NIH/3T3 normal cell growth by WST-1 method and LDH active release; assay type: cell-based; details: concentration 30 μM or less
Procedure: as §1, §2

caspase 3 activity [3] = assay: Measurement of caspase 3 activity (Example 6); assay type: cell-based
[4] = tested on: human acute leukemia cell U937; assay: U937 cell growth by cell differential staining with trypan blue; assay type: cell-based; details: for survival ratio of the cells: 100 μM, U937 cells; for action on the growth of U937 cells (in words): 10, 30, 50, 100 μM
Procedure: In order to make a comparison between the anti-leukemic cell effects of capsaicin and Dohevanil, the following experimentation was carried out using a human acute leukemia cell U937. The U937 cells were cultured in RPMI-1640 medium (pH7.2) with 5% bovine fetal serum under the culture conditions being maintained in 5% CO2 and at 37 degrees Celsius. capsaicin or Dohevanil was added to each of the cell suspensions in the concentration of 10 μM, 30 μM, 50 μM,or 100 μM and then the cells were cultured. In this comparative example, the capability of cell growth was evaluated using the measured value as an indicator obtained by a method for the cell differential staining with trypan blue.
The method for the cell differential staining with trypan blue is a method utilizing the characters that trypan blue combines with a protein to color in blue and that trypan blue enters into the dead cells due to the loss of a membrane function to prevent from its invasion. Since the dead cells are colored in blue with trypan blue, the survival ratio of the cells can be determined by counting the stained cells using a microscope.

caspase 3 activity [5] = assay: Measurement of caspase 3 activity (Example 7, U937); assay type: cell-based, human
Procedure: In particular, when the concentration is 100 μM, although the survival ratio of the cells with capsaicin is about 50%, that with Dohevanil is zero (0) %. Accordingly, it is apparent as compared with capsaicin that Dohevanil is very low in the degree of hotness and stimulus, and coincidentally has a higher anti-leukemic cell effects.

[6] = tested on: Hela cell (uterocervica cancer cell); details: low concentration; cited from earlier work
[7] = tested on: HL-60 cell (acute promyelocytic leukemia cell); details: low concentration; cited from earlier work
[8] = tested on: normal cells of human mammary gland epithelium and of liver and kidney of the rat; details: cited from earlier work
B16F10 melanoma cell [9] = assay: Phase contrast microscope observation of treated melanoma cells; assay type: cell-based, mouse; details: Dohevanil 50 μM compared with capsaicin 300 μM
Procedure: The observation of cytomorphology using the light microscope was carried out by counting with TMS (NIKON Corporation) and photographing, after plating the cells on a multiplate, and culturing it for a given time.
The shape and appearance of the melanoma cells treated in the presence of capsaicin in the concentration of 300 μM or Dohevanil in the concentration of 50 μM was observed using a phase contrast microscope.

| SMILES | cells in culture relative to the control culture (B16F10 melanoma cell [1]) | cells in culture relative to the control culture (survival ratio) (B16F10 melanoma cell [1]) | action on the growth of melanoma cells (in words) (B16F10 melanoma cell [1]) | induction of apoptosis (aggregation of chromatins, disorder of nuclear shape) (B16F10 melanoma cell [2]) | survival ratio of the cells (HeLa cells) | action on the growth of HeLa cells (in words) (HeLa cells) | action to NIH/3T3 normal cells (in words) (NIH/3T3 cells) | apoptosis according to caspase 3 activity (caspase 3 activity [3]) | survival ratio of the cells [4] | action on the growth of U937 cells (in words) [4] | apoptosis according to caspase 3 activity (caspase 3 activity [5]) | proliferative inhibitory effect (in words) [6] | proliferative inhibitory effect (in words) [7] | proliferative inhibitory effect to normal cells (in words) [8] | melanoma cells adhered to the wall of culture vessel (in words) (B16F10 melanoma cell [9]) |
| --- | --- | --- | --- | --- | --- | --- | --- | --- | --- | --- | --- | --- | --- | --- | --- |
| COc1cc(CNC(=O)CCCCC=CC(C)C)ccc1O [capsaicin, 8-methyl-N-vanillyl-6-nonenamide] | about 60% | about 50% | suppressed the growth of the cells depending on the concentration | induce the apoptosis to melanoma cells | about 50% | suppress the growth of HeLa cells depending on their concentrations | hardly act | induce the apoptosis to cause the cell death | about 50% | suppress the growth of U937 cells depending on their concentrations | induce the apoptosis to cause the cell death | proliferative inhibitory effect in a low concentration | proliferative inhibitory effect in a low concentration | without any proliferative inhibitory effects | – |
| CC/C=C\C/C=C\C/C=C\C/C=C\C/C=C\C/C=C\CCC(=O)NCc1ccc(O)c(OC)c1 [Dohevanil, N-vanillyl-4,7,10,13,16,19-Docosahexaenamide] | about 10% | 0% | suppressed the growth of the cells depending on the concentration | strongly induces the apoptosis | 0% | suppress the growth of HeLa cells depending on their concentrations | hardly act | induce the apoptosis to cause the cell death | 0% | suppress the growth of U937 cells depending on their concentrations | induce the apoptosis to cause the cell death | – | – | – | extremely reduced |
